From ChEMBL document CHEMBL3885881, “DrugMatrix”

Organism: Rattus norvegicus
Test: DrugMatrix - Regimen: Daily Repeat
Assay type: toxicity, organism-based, Sprague-Dawley
Design: regimen Daily Repeat, gender Male, age 6-8 weeks
Details: in vivo, po, route oral GAVAGE, vehicle .5 % CMC; for ABSOLUTE BASOPHIL / ABSOLUTE EOSINOPHIL / ABSOLUTE LYMPHOCYTE / ABSOLUTE MONOCYTE / ABSOLUTE SEGMENTED NEUTROPHIL / BASOPHIL / EOSINOPHIL / ERYTHROCYTE COUNT / HEMATOCRIT / HEMOGLOBIN / LEUKOCYTE COUNT / LYMPHOCYTE / MEAN CORPUSCULAR HEMOGLOBIN / MEAN CORPUSCULAR HEMOGLOBIN CONCENTRATION / MEAN CORPUSCULAR VOLUME / MONOCYTE / NEUTROPHIL / NUCLEATED RED BLOOD CELLS / PLATELET COUNT: tissue Blood; for ALANINE AMINOTRANSFERASE / ALBUMIN / ALKALINE PHOSPHATASE / ASPARTATE AMINOTRANSFERASE / BLOOD UREA NITROGEN / CARBON DIOXIDE / CHLORIDE / CHOLESTEROL / CREATINE PHOSPHOKINASE / CREATININE / GLUCOSE / LACTATE DEHYDROGENASE / LIPASE / PHOSPHORUS / POTASSIUM / SODIUM / TOTAL BILIRUBIN / TOTAL PROTEIN / URIC ACID: tissue Plasma
[1] = 15 mg/kg, 72 h, dose level Low, time 3 day
[2] = 15 mg/kg, 120 h, dose level Low, time 5 day
[3] = 2000 mg/kg, 72 h, dose level High, time 3 day
[4] = 2000 mg/kg, 120 h, dose level High, time 5 day

C[C@]12CCC(=O)C=C1CC[C@@H]1[C@@H]2CC[C@@]2(C)[C@H]1CC[C@]2(C)O [METHYLTESTOSTERONE]
ABSOLUTE BASOPHIL [1]: 0 CELLS/uL | ABSOLUTE EOSINOPHIL [1]: 240 CELLS/uL | ABSOLUTE LYMPHOCYTE [1]: 14115 CELLS/uL | ABSOLUTE MONOCYTE [1]: 60.67 CELLS/uL | ABSOLUTE SEGMENTED NEUTROPHIL [1]: 1817.67 CELLS/uL | BASOPHIL [1]: 0% | EOSINOPHIL [1]: 1.33% | ERYTHROCYTE COUNT [1]: 5.48 x10E6/uL | HEMATOCRIT [1]: 33.23% | HEMOGLOBIN [1]: 12.9 G/DL | LEUKOCYTE COUNT [1]: 16.23 x10E3/uL | LYMPHOCYTE [1]: 87% | MEAN CORPUSCULAR HEMOGLOBIN [1]: 23.53 pg | MEAN CORPUSCULAR HEMOGLOBIN CONCENTRATION [1]: 38.8 G/DL | MEAN CORPUSCULAR VOLUME [1]: 60.73 fL | MONOCYTE [1]: 0.33% | NEUTROPHIL [1]: 11.33% | NUCLEATED RED BLOOD CELLS [1]: 0 /100WBC | PLATELET COUNT [1]: 1314.67 x10E3/uL | ALANINE AMINOTRANSFERASE [1]: 47.33 u/L | ALBUMIN [1]: 4.2 G/DL | ALKALINE PHOSPHATASE [1]: 275.33 u/L | ASPARTATE AMINOTRANSFERASE [1]: 99.33 u/L | BLOOD UREA NITROGEN [1]: 18.67 mg/dL | CARBON DIOXIDE [1]: 27 mmol/L | CHLORIDE [1]: 103 MEQ/L | CHOLESTEROL [1]: 75 mg/dL | CREATINE PHOSPHOKINASE [1]: 593 u/L | CREATININE [1]: 0.23 mg/dL | GLUCOSE [1]: 141 mg/dL | LACTATE DEHYDROGENASE [1]: 578.33 u/L | LIPASE [1]: 9 u/L | PHOSPHORUS [1]: 11.9 mg/dL | POTASSIUM [1]: 5.93 MEQ/L | SODIUM [1]: 145.33 MEQ/L | TOTAL BILIRUBIN [1]: 0.2 mg/dL | TOTAL PROTEIN [1]: 5.8 G/DL | URIC ACID [1]: 1.47 mg/dL | ABSOLUTE BASOPHIL [2]: 0 CELLS/uL | ABSOLUTE EOSINOPHIL [2]: 157.67 CELLS/uL | ABSOLUTE LYMPHOCYTE [2]: 14288.33 CELLS/uL | ABSOLUTE MONOCYTE [2]: 45 CELLS/uL | ABSOLUTE SEGMENTED NEUTROPHIL [2]: 1275.67 CELLS/uL | BASOPHIL [2]: 0% | EOSINOPHIL [2]: 1% | ERYTHROCYTE COUNT [2]: 5.89 x10E6/uL | HEMATOCRIT [2]: 35.43% | HEMOGLOBIN [2]: 13.6 G/DL | LEUKOCYTE COUNT [2]: 15.77 x10E3/uL | LYMPHOCYTE [2]: 90.33% | MEAN CORPUSCULAR HEMOGLOBIN [2]: 23.1 pg | MEAN CORPUSCULAR HEMOGLOBIN CONCENTRATION [2]: 38.4 G/DL | MEAN CORPUSCULAR VOLUME [2]: 60.17 fL | MONOCYTE [2]: 0.33% | NEUTROPHIL [2]: 8.33% | NUCLEATED RED BLOOD CELLS [2]: 0 /100WBC | PLATELET COUNT [2]: 1359 x10E3/uL | ALANINE AMINOTRANSFERASE [2]: 52.33 u/L | ALBUMIN [2]: 4.13 G/DL | ALKALINE PHOSPHATASE [2]: 322.67 u/L | ASPARTATE AMINOTRANSFERASE [2]: 91 u/L | BLOOD UREA NITROGEN [2]: 13.67 mg/dL | CARBON DIOXIDE [2]: 26.67 mmol/L | CHLORIDE [2]: 103 MEQ/L | CHOLESTEROL [2]: 77.33 mg/dL | CREATINE PHOSPHOKINASE [2]: 245 u/L | CREATININE [2]: 0.17 mg/dL | GLUCOSE [2]: 149.33 mg/dL | LACTATE DEHYDROGENASE [2]: 232.33 u/L | LIPASE [2]: 9.33 u/L | PHOSPHORUS [2]: 12.6 mg/dL | POTASSIUM [2]: 6.3 MEQ/L | SODIUM [2]: 143.83 MEQ/L | TOTAL BILIRUBIN [2]: 0.17 mg/dL | TOTAL PROTEIN [2]: 5.87 G/DL | URIC ACID [2]: 1.73 mg/dL | ABSOLUTE BASOPHIL [3]: 0 CELLS/uL | ABSOLUTE EOSINOPHIL [3]: 184 CELLS/uL | ABSOLUTE LYMPHOCYTE [3]: 15708.67 CELLS/uL | ABSOLUTE MONOCYTE [3]: 378.67 CELLS/uL | ABSOLUTE SEGMENTED NEUTROPHIL [3]: 2662 CELLS/uL | BASOPHIL [3]: 0% | EOSINOPHIL [3]: 1% | ERYTHROCYTE COUNT [3]: 6.47 x10E6/uL | HEMATOCRIT [3]: 38.33% | HEMOGLOBIN [3]: 14.53 G/DL | LEUKOCYTE COUNT [3]: 18.93 x10E3/uL | LYMPHOCYTE [3]: 83% | MEAN CORPUSCULAR HEMOGLOBIN [3]: 22.53 pg | MEAN CORPUSCULAR HEMOGLOBIN CONCENTRATION [3]: 37.97 G/DL | MEAN CORPUSCULAR VOLUME [3]: 59.27 fL | MONOCYTE [3]: 2% | NEUTROPHIL [3]: 14% | NUCLEATED RED BLOOD CELLS [3]: 0 /100WBC | PLATELET COUNT [3]: 1292 x10E3/uL | ALANINE AMINOTRANSFERASE [3]: 50.33 u/L | ALBUMIN [3]: 3.93 G/DL | ALKALINE PHOSPHATASE [3]: 352.33 u/L | ASPARTATE AMINOTRANSFERASE [3]: 71.67 u/L | BLOOD UREA NITROGEN [3]: 13 mg/dL | CARBON DIOXIDE [3]: 27.67 mmol/L | CHLORIDE [3]: 101.33 MEQ/L | CHOLESTEROL [3]: 14.67 mg/dL | CREATINE PHOSPHOKINASE [3]: 215 u/L | CREATININE [3]: 0.25 mg/dL | GLUCOSE [3]: 123.33 mg/dL | LACTATE DEHYDROGENASE [3]: 352 u/L | LIPASE [3]: 7.33 u/L | PHOSPHORUS [3]: 10.83 mg/dL | POTASSIUM [3]: 6.24 MEQ/L | SODIUM [3]: 142.83 MEQ/L | TOTAL BILIRUBIN [3]: 0.5 mg/dL | TOTAL PROTEIN [3]: 5.53 G/DL | URIC ACID [3]: 1.17 mg/dL | ABSOLUTE BASOPHIL [4]: 0 CELLS/uL | ABSOLUTE EOSINOPHIL [4]: 0 CELLS/uL | ABSOLUTE LYMPHOCYTE [4]: 14176.33 CELLS/uL | ABSOLUTE MONOCYTE [4]: 40.33 CELLS/uL | ABSOLUTE SEGMENTED NEUTROPHIL [4]: 2783.33 CELLS/uL | BASOPHIL [4]: 0% | EOSINOPHIL [4]: 0% | ERYTHROCYTE COUNT [4]: 6.11 x10E6/uL | HEMATOCRIT [4]: 36.23% | HEMOGLOBIN [4]: 13.97 G/DL | LEUKOCYTE COUNT [4]: 17 x10E3/uL | LYMPHOCYTE [4]: 83% | MEAN CORPUSCULAR HEMOGLOBIN [4]: 22.9 pg | MEAN CORPUSCULAR HEMOGLOBIN CONCENTRATION [4]: 38.53 G/DL | MEAN CORPUSCULAR VOLUME [4]: 59.37 fL | MONOCYTE [4]: 0.33% | NEUTROPHIL [4]: 16.67% | NUCLEATED RED BLOOD CELLS [4]: 0.33 /100WBC | PLATELET COUNT [4]: 1295.33 x10E3/uL | ALANINE AMINOTRANSFERASE [4]: 46 u/L | ALBUMIN [4]: 3.83 G/DL | ALKALINE PHOSPHATASE [4]: 370 u/L | ASPARTATE AMINOTRANSFERASE [4]: 60 u/L | BLOOD UREA NITROGEN [4]: 16.33 mg/dL | CARBON DIOXIDE [4]: 26 mmol/L | CHLORIDE [4]: 105 MEQ/L | CHOLESTEROL [4]: 28.33 mg/dL | CREATINE PHOSPHOKINASE [4]: 184.33 u/L | CREATININE [4]: 0.2 mg/dL | GLUCOSE [4]: 158.33 mg/dL | LACTATE DEHYDROGENASE [4]: 186.67 u/L | LIPASE [4]: 7.67 u/L | PHOSPHORUS [4]: 12.33 mg/dL | POTASSIUM [4]: 6.29 MEQ/L | SODIUM [4]: 149.6 MEQ/L | TOTAL BILIRUBIN [4]: 0.3 mg/dL | TOTAL PROTEIN [4]: 6.03 G/DL | URIC ACID [4]: 1.5 mg/dL
